Assay results from patent US6713445B1, “Peptides for treatment of HIV infection” (Advanced Immuni T, Inc., priority 1998, dated 2004).
Where a SMILES comes first, the peptide text is derived from it.

System: GP120-Mediated Neurotoxicity
Assay: Neuronal survival assay with 1 pM gp120 (count of neuron-specific enolase positive cells)
Format: cell-based
Details: together with 1 pM gp120 (RF isolate), primary cultures of mixed rat neurons glia; for inhibition of neuronal death caused by gp120 (in words): dose-dependent; for protection against gp120 neuronal death: peptide at 10 μM
From the text: Materials: A gp120 isolate RFII was obtained from Dr. P. Nara, NCI, NIH. All of the gp120's are purified, >95% homogeneous and previously tested for neurotoxicity with cultured neurons and were used at 1 pM final concentration in cultures of neurons. Peptides of the formula Ile-Lys-Glu-Tyr-Phe-Thr-Ser (SEQ. ID NO: 2), Ile-Lys-Glu-Tyr-Phe (SEQ. ID NO: 3), and Leu-Glu-Ser-Tyr-Thr (SEQ. ID NO: 1), were obtained from Peninsula Labs, CA. and synthesized by solid-phase Merrified methods and purified to greater than 95% homogeneity by two HPLC methods and structure confirmed by MASS Spectroscopy Analysis.
Neuronal cell culture: Dissociated hippocampal cultures are prepared from neonatal (day 2) rat cortex and hippocampus by known methods. Sterilely dissected brain tissue is minced and treated with 0.125% trypsin for 30 minutes then gently triturated with fire-polished Pasteur pipes and plated in six-well trays (35 mm^2) at low density (50,000 cells/35 mm^2 dish) upon confluent layers of astrocytes in medium containing D-MEM, penicillin (25 U/ml), streptomycin ([…]), D-glucose (0.6%), and 10% heat-inactivated fetal calf serum (HyClone Laboratories), supplemented with insulin, transferrin, selenium, corticosterone, and triiodothyronine. Medium is changed after 3 days. At 6 days, half the medium is exchanged for fresh medium. The astrocyte feeder layers were prepared from the cortexes of neonatal rats following dissection and trituration. Plating was 2.5×10^2 cells per well. Feeder layers were grown in Eagles's minimal essential medium (Formula No. 82-0234DJ, Gibco) with 10% fetal calf serum until confluent (7-14 days). With this medium the feeder cultures were free of neurons and consisted of flat cells that were stained by antibodies to glial fibrillary acidic protein, a standard immunocytochemical marker for astroglia. When hippocampal or cortical cells were added to the confluent feeder layer, the medium was changed to the following composition: 5% horse serum and MEM supplement with defined medium components. The hippocampal or cortical cultures were treated with 5′-fluoro-2′-deoxyuridine (15 ug/ml plus uridine, 35 ug/ml) to suppress the overgrowth of background cells and allow the establishment of neurons. The neurons in these cultures are post-mitotic. The neuronal cultures were allowed to grow for 1 week prior to the beginning of the experimental period. Before treating the cultures, a complete change of medium was given.
Neuronal survival assay: GP120's, with or without added peptides, were diluted in phosphate buffered saline and added to the cultures, which were treated only once for a four day period. At termination, cultures were fixed with glutaraldehyde as previously described. At the end of the test period, neuronal survival was assessed by immunohistochemical detection of neuron-specific enolase positive cells (neurons). Cultures were counted in a blinded fashion without knowledge of sample treatment in 40 fields at pre-determined coordinate locations. The total area counted is 50 mm^2. Each value reported is the mean±the standard error of 3-4 determinations. Control (saline treated) wells from these cultures have 395±20 neurons. Statistical comparisons between experimental and control culture neuronal cell counts are via analysis of variance with the Student-Newman-Kuels multiple comparison of means test.
The dotted line in FIG. 1 represents the mean number of neurons in control cultures.

Compound	inhibition of neuronal death caused by gp120 (in words)	protection against gp120 neuronal death	EC50 (read-out: EC50 for preventing neuronal loss caused by gp120, four day period) [nM]
CC[C@H](C)[C@H](N)C(=O)N[C@@H](CCCCN)C(=O)N[C@@H](CCC(=O)O)C(=O)N[C@@H](Cc1ccc(O)cc1)C(=O)N[C@@H](Cc1ccccc1)C(=O)N[C@H](C(=O)N[C@@H](CO)C(=O)O)[C@@H](C)O [IKEYFTS, Ile-Lys-Glu-Tyr-Phe-Thr-Ser] (H-IKEYFTS-OH; N-terminus and C-terminus assumed)	preventing neuronal loss	fully protective	100
Ile-Lys-Glu-Tyr-Phe (IKEYF; mammalian) [shorter pentapeptide used to show specificity]	inactive		
Leu-Glu-Ser-Tyr-Thr (LESYT; mammalian)	preventing neuronal loss	partially protective	
